{
  "source": "patent US20140045805A1",
  "about": "“Fragrance Compositions and Other Compositions Which Contain Naturally Occurring Substances Found in Corals” (priority 2007, published 2014)",
  "key": {"[1]": {"test_system": "peripheral nasal chemosensory receptors", "conditions": "cited from earlier work; for Cross adaptation / fatigue of the receptors toward androstadienone: repeated stimulation, local electrical response of human vomeronasal epithelium, Monti-Bloch et al. 1994"}, "[2]": {"test_system": "healthy volunteers (men and women)", "assay": "Behavioral effects by modified DABS-70 inventory after nasal exposure", "type": "in vivo, human", "conditions": "12 ng nasal"}, "[3]": {"test_system": "healthy volunteers (men and women)", "assay": "Physiologic parameters (electrophysiology) after nasal exposure", "type": "in vivo, human", "set-up": "Mean MA, BT (body temperature) / Mean MA, EMG (electromyogram) / Mean MA, BR (blinking reflex) / Mean MA, EEG-A (alpha cortical activity) / Mean MA, EEG-B (beta cortical activity) / Mean MA, EEG-T (theta cortical activity) / Mean MA, EDA (electrodermal activity): unit not given here", "conditions": "for Mean MA, BR (blinking reflex) / Mean MA, BT (body temperature) / Mean MA, EDA (electrodermal activity) / Mean MA, EEG-A (alpha cortical activity) / Mean MA, EEG-B (beta cortical activity) / Mean MA, EEG-T (theta cortical activity) / Mean MA, EMG (electromyogram) / Mean MA, HR (heart rate) / Mean MA, RR (respiration rate): 12 ng/20 min airborne nasal; for % Change MA, BR (blinking reflex) / % Change MA, EDA (electrodermal activity) / % Change MA, EEG-A (alpha cortical activity) / % Change MA, EEG-B (beta cortical activity) / % Change MA, EEG-T (theta cortical activity) / % Change MA, EMG (electromyogram) / % Change MA, HR (heart rate) / % Change MA, RR (respiration rate): 12 ng, vs baseline-2", "procedure": "We assessed the resulting physiological responses and behavioral changes induced by nasal exposure to 12 ng pregna-5,20-dien-3β-ol in 76 volunteers (38 women and 38 men), age 18 to 46 (Table 1) using a placebo-controlled, single blind and crossover study design. The items of the modified DABS-70 were rearranged during consecutive administrations, in order to minimize the effect of learning.\nUpon completion of the first DABS-70, each subject was invited to rest supine in a comfortable medical bed in a quiet room and several non-invasive electrode leads and transducers were positioned on the surface skin of the arms, face and skull to help measure physiologic parameters (FIG. 4). A conventional grounding electrode and a reference electrode lead were positioned on the surface skin of the mastoid process and the right ear lobe respectively, with the aid of hypoallergenic conductive paste. Other non-invasive standard electrode-leads and transducers were used for recording the following physiologic parameters: • Electrocardiogram (EKG), standard bipolar I. • Electropneumogram (EPG), strain gauge around lower thorax. • Electrodermal activity (EDA), palm surface of 3rd and 4th finger (right hand). • Blinking reflex (BR), upper and lower left eye-lid. • Electromyogram (EMG), bilaterally in chin area. • Body temperature (BT), mini-thermistor probe in external ear canal. • Electroencephalogram (EEG), CzA2 and T4A2 from the […] International EEG electrode placement chart.\nDuring the course of a recording session, physiologic readings were performed in four consecutive instances, before and after randomized administration of active substance or control (FIG. 4): PHYS-1 recording, starting 5 minutes before the first randomized dosing; PHYS-2, starting 15 minutes after administration of the first randomized dosing; PHYS-3, starting 5 minutes before administration of the second randomized dosing; and PHYS-4 starting 15 minutes after administration of the second randomized dosing.\nAll physiological recordings were pre-amplified and digitized (Biopac Systems), and continuously computer monitored and stored (Macintosh G3), for further off-line processing and analysis (for a detailed explanation see Monti-Bloch et al, 1994, 1998).\nActive substance (pregna-5,20-dien-3β-ol) and control were freshly prepared on 0.7 cm×10 cm perfumery grade smelling strips 24 hours before the experiment. A perfumery grade smelling strip was positioned on the upper lip of the subject for delivery of control or active substance to the nasal passages for a period of 20 minutes. Each breath carried vapors of pregna-5,20-dien-3β-ol or control (air) from the paper strip to the nasal passages.\nPerfumery grade smelling strips containing either pregna-5,20-dien-3β-ol or control were prepared as follows: 100 μl of stock solution containing 100 mg pregna-5,20-dien-3β-ol/10 mL ethanol (95%) was added to a clean paper strip. Ethanol was allowed to evaporate overnight in a clean fume hood, and 1 mg of dry crystals of pregna-5,20-dien-3β-ol remained embedded in the dried perfumery grade smelling strip. Control was a perfumery grade smelling strip prepared following the same procedure but the solution was devoid of active substance.\nThe following assumptions were used to calculate the quantity of pregna-5,20-dien-3β-ol delivered to the nasal passages during a study session: a) the quantity of pregna-5,20-dien-3β-ol arriving to the nasal passages with each breath is ≈40 pg (determined as described below); b) the average respiratory rate at rest in men and women is ≈15 breaths per minute; and c) the subject was exposed to pregna-5,20-dien-3β-ol for 20 min during the entire study session. The total calculated quantity of pregna-5,20-dien-3β-ol delivered to the nasal passages over 20 min (exposure during the study session) was calculated as follows: 40 pg/breath×15 breaths/min×20 min=12000 pg=12 ng. […]"}, "[4]": {"conditions": "men, listed as Pregna-5,20-dien-3β-ol"}, "[5]": {"conditions": "women, listed as Pregna-5,20-dien-3β-ol"}},
  "note": "Where two headings read alike, the source gives them in different places.",
  "data": [
    {"compound": "C=C[C@H]1CC[C@H]2[C@@H]3CC=C4C[C@@H](O)CC[C@]4(C)[C@H]3CC[C@]12C", "note": "[pregna-5,20-dien-3β-ol, Pregna-5,20-dien-3β-ol]", "values": [
      {"measurement": "Depolarization of the electrogram of peripheral nasal chemosensory receptors", "setting": "[1]; androstadienone 27 picograms, muricin aglycone 30 picograms, adapted from Monti-Bloch et al. (1994)", "result": "robust depolarization"},
      {"measurement": "Cross adaptation / fatigue of the receptors toward androstadienone", "setting": "[1]; listed as Muricin aglycone", "result": "elicit cross adaptation"},
      {"measurement": "Cross adaptation / fatigue of the receptors toward androstadienone", "setting": "[1]; listed as muricin aglycone", "result": "produces fatigue of the receptors"},
      {"measurement": "Negativity cluster, response versus control", "setting": "[2]; listed as muricin aglycone", "result": "no effect on negativity"},
      {"measurement": "Social Warmth and Friendliness cluster, overall response versus control", "setting": "[2]; regardless of gender, p<0.00001, listed as muricin aglycone", "result": "enhanced levels"},
      {"measurement": "Mean MA, BR (blinking reflex)", "setting": "[3]; men", "result": 25.970},
      {"measurement": "Mean MA, BT (body temperature)", "setting": "[3]; men", "result": "−0.011"},
      {"measurement": "Mean MA, EDA (electrodermal activity)", "setting": "[3]; men", "result": 3.467},
      {"measurement": "Mean MA, EEG-A (alpha cortical activity)", "setting": "[3]; men", "result": 29.613},
      {"measurement": "Mean MA, EEG-B (beta cortical activity)", "setting": "[3]; men", "result": 57.853},
      {"measurement": "Mean MA, EEG-T (theta cortical activity)", "setting": "[3]; men", "result": 17.630},
      {"measurement": "Mean MA, EMG (electromyogram)", "setting": "[3]; men", "result": 20.067},
      {"measurement": "Mean MA, HR (heart rate)", "setting": "[3]; men", "result": 66.323},
      {"measurement": "Mean MA, RR (respiration rate)", "setting": "[3]; men", "result": 13.133},
      {"measurement": "% Change MA, BR (blinking reflex)", "setting": "[3]; men", "result": "−22.392", "unit": "%"},
      {"measurement": "% Change MA, EDA (electrodermal activity)", "setting": "[3]; men", "result": 44.458, "unit": "%"},
      {"measurement": "% Change MA, EEG-A (alpha cortical activity)", "setting": "[3]; men", "result": 2.798, "unit": "%"},
      {"measurement": "% Change MA, EEG-B (beta cortical activity)", "setting": "[3]; men", "result": "−13.691", "unit": "%"},
      {"measurement": "% Change MA, EEG-T (theta cortical activity)", "setting": "[3]; men", "result": 14.036, "unit": "%"},
      {"measurement": "% Change MA, EMG (electromyogram)", "setting": "[3]; men", "result": 64.524, "unit": "%"},
      {"measurement": "% Change MA, HR (heart rate)", "setting": "[3]; men", "result": "−2.609", "unit": "%"},
      {"measurement": "% Change MA, RR (respiration rate)", "setting": "[3]; men", "result": "−19.097", "unit": "%"},
      {"measurement": "% Change MA, EEG-A (alpha cortical activity)", "setting": "[3]; [4]", "result": "did not have a significant effect"},
      {"measurement": "% Change MA, EEG-B (beta cortical activity)", "setting": "[3]; [4]", "result": "did not have a significant effect"},
      {"measurement": "% Change MA, HR (heart rate)", "setting": "[3]; [4]", "result": "−2.6", "unit": "%"},
      {"measurement": "Mean MA, BR (blinking reflex)", "setting": "[3]; women", "result": 28.483},
      {"measurement": "Mean MA, BT (body temperature)", "setting": "[3]; women", "result": 0.064},
      {"measurement": "Mean MA, EDA (electrodermal activity)", "setting": "[3]; women", "result": 3.379},
      {"measurement": "Mean MA, EEG-A (alpha cortical activity)", "setting": "[3]; women", "result": 27.724},
      {"measurement": "Mean MA, EEG-B (beta cortical activity)", "setting": "[3]; women", "result": 61.069},
      {"measurement": "Mean MA, EEG-T (theta cortical activity)", "setting": "[3]; women", "result": 17.897},
      {"measurement": "Mean MA, EMG (electromyogram)", "setting": "[3]; women", "result": 25.276},
      {"measurement": "Mean MA, HR (heart rate)", "setting": "[3]; women", "result": 64.828},
      {"measurement": "Mean MA, RR (respiration rate)", "setting": "[3]; women", "result": 13.379},
      {"measurement": "% Change MA, BR (blinking reflex)", "setting": "[3]; women", "result": "−31.859", "unit": "%"},
      {"measurement": "% Change MA, EDA (electrodermal activity)", "setting": "[3]; women", "result": 71.784, "unit": "%"},
      {"measurement": "% Change MA, EEG-A (alpha cortical activity)", "setting": "[3]; women", "result": "−14.871", "unit": "%"},
      {"measurement": "% Change MA, EEG-B (beta cortical activity)", "setting": "[3]; women", "result": "−1.023", "unit": "%"},
      {"measurement": "% Change MA, EEG-T (theta cortical activity)", "setting": "[3]; women", "result": 24.001, "unit": "%"},
      {"measurement": "% Change MA, EMG (electromyogram)", "setting": "[3]; women", "result": 55.545, "unit": "%"},
      {"measurement": "% Change MA, HR (heart rate)", "setting": "[3]; women", "result": "−3.000", "unit": "%"},
      {"measurement": "% Change MA, RR (respiration rate)", "setting": "[3]; women", "result": "−16.030", "unit": "%"},
      {"measurement": "% Change MA, EEG-A (alpha cortical activity)", "setting": "[3]; [5]", "result": "did not have a significant effect"},
      {"measurement": "% Change MA, EEG-B (beta cortical activity)", "setting": "[3]; [5]", "result": "did not have a significant effect"},
      {"measurement": "% Change MA, HR (heart rate)", "setting": "[3]; [5]", "result": "−3.0", "unit": "%"},
      {"measurement": "% Change MA, RR (respiration rate)", "setting": "[3]; [5]", "result": "−16.03", "unit": "%"}
    ]}
  ]
}
